The structures appear in SMILES notation. pIC50: −log10 of the molar value. In brackets after ≈: the same amount, converted by molar mass.

Data set [1] can be described thus: Aqueous solubility of compound by HPLC method. It counts as physicochemical. The conditions noted are these: water (aqueous).
Data set [2] has as its system HCT-116. Put plainly: Antiproliferative activity against human HCT-116 cells assessed as cell growth inhibition measured after 72 hrs by SRB assay. It counts as functional, cell-based. The conditions noted are these: HCT-116, 72 h. A general note: The SRB assay estimates cell density from bound dye.
The next data set deals with A549. In words: Antiproliferative activity against human A549 cells assessed as cell growth inhibition measured after 72 hrs by SRB assay. The conditions noted are these: A549, 72 h. It counts as functional, cell-based.
Data set [3] is described as follows: Cytotoxicity against human Astrocyte cells assessed as cell growth inhibition. It counts as toxicity, cell-based.
Another data set deals with SF-188. Put plainly: Antiproliferative activity against human SF-188 cells assessed as cell growth inhibition. It counts as functional, cell-based.
The subject of a further data set is U-251. Put plainly: Antiproliferative activity against human U-251MG cells assessed as cell growth inhibition. It counts as functional, cell-based.
For the next data set, the system named is MDA-MB-436. In words: Antitumor activity against human MDA-MB-436 cells xenografted in athymic nude mouse assessed as tumor volume inhibition at 60 mg/kg per day, po. It is filed as functional. A general note: A xenograft is tissue or cells of one species grown in another, often human tumour cells in immunodeficient mice.
For another data set, the system named is SK-OV-3. Put plainly: Antitumor activity against human SK-OV-3 cells xenografted in athymic nude mouse assessed as tumor volume inhibition at 60 mg/kg per day, po. It is filed as functional.
The test system of the next data set is MV4-11. Put plainly: Antitumor activity against human MV4-11 cells xenografted in athymic nude mouse assessed as tumor volume inhibition at 60 mg/kg per day, po. It is filed as functional.
Data set [4] relates to HCT-116. In words: Antitumor activity against human HCT-116 cells xenografted in athymic nude mouse assessed as tumor volume inhibition at 60 mg/kg per day, po. It counts as functional.
The test system of another data set is NCI-H1975. In words: Antitumor activity against human NCI-H1975 cells xenografted in athymic nude mouse assessed as tumor volume inhibition at 60 mg/kg per day, po. It is filed as functional.

In the case of `CN(CCOC(=O)ONC(=O)CCCCCCC(=O)Nc1ccccc1)C(=O)OCc1ccc(O[C@@H]2O[C@H](C(=O)O)[C@@H](O)[C@H](O)[C@H]2O)c([N+](=O)[O-])c1`, the solubility – broadly, the dissolved amount per volume that the medium holds – in data set [1] came to 40 mg/mL (≈ 54.3 mM).
For `CCc1c2c(nc3ccc(O)cc13)-c1cc3c(c(=O)n1C2)COC(=O)[C@]3(O)CC` [7-ETHYL-10-HYDROXYCAMPTOTHECIN], the pIC50 (in general, −log10 of the IC50, conventionally taken in molar units) is 7.26 with HCT-116 [2] and 7.34 in the data set on A549.
On to `CCCC(=O)OCOC(=O)CCCc1ccccc1`, for which the negative logarithm of the IC50 (pIC50) is 3.54 in [3], 4.12 in the data set on SF-188 and 3.81 in the data set with U-251.
For `CC(=O)SCCCCC[C@H](NC(=O)[C@H]1CCC(=O)N1)C(=O)Nc1ccccc1`, the inhibition in vivo (usually how much of the control response was suppressed) at 60 mg/kg in the data set with MDA-MB-436 was 35%; in the data set on SK-OV-3, 59%; with MV4-11, 70%; with HCT-116 [4], 77%; in the data set on NCI-H1975, 65%.
In turn, `CN(CCOC(=O)ONC(=O)CCCCCCC(=O)Nc1ccccc1)C(=O)OCc1ccc(O[C@@H]2O[C@H](C(=O)O)[C@@H](O)[C@H](O)[C@H]2O)c(N)c1` showed a solubility in data set [1] of 55 mg/mL (≈ 77.8 mM).
For the molecule `CCc1c2c(nc3ccc(O)cc13)-c1cc3c(c(=O)n1C2)COC(=O)[C@@]3(CC)OC(=O)CNC(=O)ONC(=O)CCCCCCC(=O)Nc1ccccc1`, the negative-log IC50 (pIC50) was 6.95 in the data set with HCT-116 [2] and 7.06 in the data set on A549.
`CN(CCOC(=O)ONC(=O)/C=C/c1cccc(S(=O)(=O)Nc2ccccc2)c1)C(=O)OCc1ccc(O[C@@H]2O[C@H](C(=O)O)[C@@H](O)[C@H](O)[C@H]2O)c([N+](=O)[O-])c1` showed a solubility in [1] of 80 mg/mL (≈ 101 mM).
Molecule `CN(CCOC(=O)ONC(=O)/C=C/c1cccc(S(=O)(=O)Nc2ccccc2)c1)C(=O)OCc1ccc(O[C@@H]2O[C@H](C(=O)O)[C@@H](O)[C@H](O)[C@H]2O)c(N)c1` yielded a solubility in data set [1] of 100 mg/mL (≈ 131 mM).

The values are drawn from ChEMBL document CHEMBL5230091, “Histone deacetylase inhibitor based prodrugs” (Eur J Med Chem, 2020).
